Experimental data: patent US20030134353A1, “Recombinant dimorphic fungal cell” (Bioteknologisk Institut, priority 2001, published 2003)

How the values were obtained:
[1] = system: pkaR expression; assay: Northern blot analysis of pkaR expression during aerobic growth after dbcAMP addition; assay type: cell-based, M. circinelloides; details: for Total Counts (pkaR mRNA, background subtracted): aerobic growth
Procedure: M. circinelloides syn. racemosus R7B (ATCC 90680), a leucine auxotrophic strain of ATCC1216b, was used as a recipient for transformation experiments and for expression studies. Cultures were grown at 28° C. in either YPG (Bartnicki-Garcia and Nickerson, 1962), YNB (Lasker and Borgia, 1980), Vogel's medium supplemented with 1.5 g glutamic acid per litre (Hoekstra, 1996) or SIV medium with 1.5 g glutamic acid per litre in place of L-aspargine (Eslava and Alvarez, 1996). Vogel's and SIV media were supplemented with 2 g casamino acids (Difco, Detroit, Mich., USA) per litre. All media were supplemented with 1 mg/L niacin amide and 1 mg/L thiamine chloride. When appropriate, 20 mg/L leucine was added to allow for the growth of strain R7B. For the analysis of pkaR expression, 5 mM dbcAMP (Sigma) was added to aerobic growing cultures during exponential growth. The BBL GasPak system (Becton Dickinson, Sparks, Md., USA) was used for anaerobic incubation of strains on solid medium. E. coli DH5α was used for DNA manipulations.
RNA isolation was carried out using a FastRNA kit (BIO101 Inc., CA, USA) and extraction with acid Phenol:chloroform (Sigma). For Northern blot analysis, total RNA was loaded onto formaldehyde containing agarose gel, subjected to electrophoresis, transferred to GeneScreen membrane (Du Pont) and hybridised as described (Arnau et al., 1996). Expression levels were meassured using a Cyclone Storage Phosphor System (Packard) and the OptiQuant image analysis software. A linear dynamic range of 5 orders of magnitude with only a 5% standard deviation is possible with the above apparatus. Dilution series of the RNA preparations (typically 20, 10 and 5 μg total RNA per sample) were used to estimate induction levels. Primer extension was carried out using a radioactively end-labelled primer; complementary to position 98-78 downstream of the pkaR ATG start codon. A sequence ladder was obtained using the same primer and pEUKA4-pkaR DNA as template using the Thermo Sequenase Radiolabeled Terminator Cycle Sequencing Kit (USB-Amersham). Probe labelling was performed using Ready-To-Go DNA Labelling Beads (Amersham Pharmacia Biotech). Unincorporated nucleotides were removed using a NICK column (Pharmacia).
In a complementary study, the expression of pkaR was followed during aerobic (filamentous) growth before and after the addition of dbcAMP. This cAMP analogue is membrane permeable and its addition results in PKA activation.

[2] = system: M. circinelloides; details: van Heeswijck et al., 1988; acid pH (3.2 or 4.5); cited from earlier work
[3] = system: Mucor circinelloides strain R7B; assay: Screening of antibiotic sensitivity on YNB agar at pH 6.0; assay type: cell-based; details: YNB agar pH 6.0, 4 days at 28° C.
Procedure: Spores of Mucor circinelloides strain R7B were plated on to YNB agar pH 6.0 supplemented with leucine (upper left plate in all panels) or the same medium supplemented with 50, 100 or 250 μg/ml of the antibiotic (geneticin, kanamycin, hygromycin B or neomycin) as indicated in each panel. After 4 days at 28° C., plates were examined and photographed.
However, the conditions used for the above screening—especially the acid pH used (3.2 or 4.5)—may result in the inactivation of the antibiotic. Therefore, we performed an initial screening of antibiotic sensitivity using pH 6.0. Under these conditions, M. circinelloides is sensitive to all four antibiotic tested.

For CCCC(=O)Nc1ncnc2c1ncn2[C@@H]1O[C@@H]2COP(=O)(O)O[C@H]2[C@H]1OC(=O)CCC [dbcAMP], the “Total Counts (pkaR mRNA, background subtracted)” value (“Total Counts” below) ([1]; 15 min after addition of 5 mM dbcAMP) was 951, the “Total Counts” value ([1]; 30 min after addition of 5 mM dbcAMP) was 1728 and the “Total Counts” value ([1]; 60 min after addition of 5 mM dbcAMP) was 2235. For the same compound, the “Total Counts” value ([1]; 120 min after addition of 5 mM dbcAMP) was 2392, the “Total Counts” value ([1]; 180 min after addition of 5 mM dbcAMP) was 2966 and the “Induction of pkaR expression compared to the level before dbcAMP addition” value ([1]; after three hours) was “sevenfold”.
In the case of neomycin, the “Sensitivity of M. circinelloides to antibiotic as reported” value (from here on “Sensitivity of M. circinelloides”) [2] is listed as “insensitive”.
For CC[C@H]1/C=C/C=C/C[C@@H](C)[C@H](O)[C@@](C)(O)C(=O)[C@@H](C)[C@H](O)[C@@H](C)C(=O)[C@@H](C)[C@H](O)[C@@H](C)/C=C/C(=O)O[C@@H]2[C@H](C)[C@H](CC1)O[C@]1(CC[C@H](C)[C@H](C[C@@H](C)O)O1)[C@H]2C [oligomycin], the “Sensitivity of M. circinelloides” value [2] is given as “insensitive”.
For CN[C@H]1C[C@@H](N)[C@H](O)[C@@H](O[C@@H]2O[C@H](CO)[C@H](O)[C@@H]3OC4(O[C@H]23)O[C@H]([C@@H](N)CO)[C@H](O)[C@H](O)[C@H]4O)[C@@H]1O (some centres unmarked) [hygromycin B], the “Growth of M. circinelloides on antibiotic-supplemented plates” value ([3]; 50 μg/ml antibiotic) was “tiny colonies” and the “Growth of M. circinelloides on antibiotic-supplemented plates” value ([3]; 100 μg/ml antibiotic) was “no growth”.
For CCCCNC(=O)n1c(NC(=O)OC)nc2ccccc21 [benomyl], the “Sensitivity of M. circinelloides” value [2] is listed as “insensitive”.
